Assay results taken from PubChem BioAssay AID588490 (The Scripps Research Institute Molecular Screening Center, 2011).

Assays:
Test in all cases: PubChem AID 588490; call rule not given here
[1] = biological target: Protein-arginine deiminase type-1 (Homo sapiens) (UniProt Q9ULC6); conditions: recombinant PAD1-4, BAEE citrulline colorimetric absorbance; PAD1
[2] = biological target: Protein-arginine deiminase type-3 (Homo sapiens) (UniProt Q9ULW8); conditions: recombinant PAD1-4, BAEE citrulline colorimetric absorbance; PAD3
Protein-arginine deiminase type-3 (Homo sapiens), sequence (Q9ULW8 whole entry, looked up): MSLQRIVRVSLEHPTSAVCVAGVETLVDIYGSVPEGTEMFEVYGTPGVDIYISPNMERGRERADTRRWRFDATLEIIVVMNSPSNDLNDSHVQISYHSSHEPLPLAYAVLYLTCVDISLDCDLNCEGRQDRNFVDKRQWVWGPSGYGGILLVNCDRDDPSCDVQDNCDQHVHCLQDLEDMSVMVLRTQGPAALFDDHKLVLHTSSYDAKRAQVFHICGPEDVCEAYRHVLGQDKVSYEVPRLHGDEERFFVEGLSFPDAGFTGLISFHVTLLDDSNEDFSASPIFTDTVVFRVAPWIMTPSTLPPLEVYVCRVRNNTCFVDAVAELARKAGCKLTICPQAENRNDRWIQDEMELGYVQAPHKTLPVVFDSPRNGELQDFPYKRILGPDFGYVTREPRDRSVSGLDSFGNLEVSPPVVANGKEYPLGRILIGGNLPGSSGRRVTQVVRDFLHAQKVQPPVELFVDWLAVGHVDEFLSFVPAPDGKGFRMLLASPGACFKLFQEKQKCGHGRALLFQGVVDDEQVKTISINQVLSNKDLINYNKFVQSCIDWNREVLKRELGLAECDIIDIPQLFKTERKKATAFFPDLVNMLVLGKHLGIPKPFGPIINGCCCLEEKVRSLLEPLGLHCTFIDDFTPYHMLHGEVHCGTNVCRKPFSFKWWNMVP

[3] = biological target: Protein-arginine deiminase type-2 (Homo sapiens) (UniProt Q9Y2J8); conditions: recombinant PAD1-4, BAEE citrulline colorimetric absorbance; PAD2
Protein-arginine deiminase type-2 (Homo sapiens), sequence (Q9Y2J8 whole entry, looked up): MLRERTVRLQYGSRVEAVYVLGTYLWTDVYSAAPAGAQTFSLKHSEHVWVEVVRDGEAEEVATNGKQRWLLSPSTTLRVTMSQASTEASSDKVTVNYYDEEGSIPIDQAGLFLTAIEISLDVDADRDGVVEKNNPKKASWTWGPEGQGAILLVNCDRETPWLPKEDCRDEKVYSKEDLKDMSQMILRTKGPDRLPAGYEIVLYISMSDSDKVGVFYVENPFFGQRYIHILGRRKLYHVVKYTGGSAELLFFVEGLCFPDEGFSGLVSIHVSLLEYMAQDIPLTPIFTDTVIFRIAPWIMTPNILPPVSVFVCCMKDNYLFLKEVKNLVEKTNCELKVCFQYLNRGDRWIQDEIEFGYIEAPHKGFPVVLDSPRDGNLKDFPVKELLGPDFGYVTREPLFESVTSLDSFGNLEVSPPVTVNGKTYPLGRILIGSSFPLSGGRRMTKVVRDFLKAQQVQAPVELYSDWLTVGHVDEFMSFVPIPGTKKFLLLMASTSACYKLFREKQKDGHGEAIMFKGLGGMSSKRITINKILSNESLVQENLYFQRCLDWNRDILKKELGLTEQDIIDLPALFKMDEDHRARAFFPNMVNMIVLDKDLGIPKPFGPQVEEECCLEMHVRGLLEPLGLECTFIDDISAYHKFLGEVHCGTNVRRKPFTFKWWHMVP

Measured: IC50

Protein-arginine deiminase type-1 (Homo sapiens), sequence (Q9ULC6 whole entry, looked up): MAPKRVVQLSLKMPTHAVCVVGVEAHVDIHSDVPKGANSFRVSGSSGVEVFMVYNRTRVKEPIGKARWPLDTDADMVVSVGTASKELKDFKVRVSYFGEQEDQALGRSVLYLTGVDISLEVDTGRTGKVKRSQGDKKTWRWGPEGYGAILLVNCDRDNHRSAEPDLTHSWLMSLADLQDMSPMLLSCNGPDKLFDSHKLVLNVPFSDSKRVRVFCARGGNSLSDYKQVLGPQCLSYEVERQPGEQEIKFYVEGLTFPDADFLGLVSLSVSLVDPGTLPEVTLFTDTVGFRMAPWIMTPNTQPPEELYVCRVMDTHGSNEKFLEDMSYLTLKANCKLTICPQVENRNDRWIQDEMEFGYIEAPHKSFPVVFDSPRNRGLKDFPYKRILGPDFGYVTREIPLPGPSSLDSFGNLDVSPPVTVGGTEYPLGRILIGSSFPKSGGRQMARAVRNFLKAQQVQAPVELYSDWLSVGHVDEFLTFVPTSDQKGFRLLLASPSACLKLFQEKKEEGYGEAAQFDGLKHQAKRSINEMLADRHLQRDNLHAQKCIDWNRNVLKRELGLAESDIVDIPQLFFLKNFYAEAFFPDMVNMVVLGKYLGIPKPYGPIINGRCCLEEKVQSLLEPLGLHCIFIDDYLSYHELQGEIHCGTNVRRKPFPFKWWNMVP

NC1=CC(=O)c2ccc(-c3cccc(C(=O)O)n3)nc2C1=O
active: [1] 0.07 µM | [2] 0.71 µM | [3] 0.2 µM
